Laboratory results published in PMC8618442, “Solubility of Cinnarizine in (Transcutol + Water) Mixtures: Determination, Hansen Solubility Parameters, Correlation, and Thermodynamics” (Molecules, 2021).
Converted amounts (≈) assume the structure as drawn. Read-outs that look alike come from different tables or passages of the source.

Legend:
[1] = Shake-flask equilibrium solubility of CNZ in {TP + water} mixtures and neat solvents (HPLC at 253 nm); format: physicochemical; details: 0.1 MPa
Procedure: Using a Digital Analytical Balance (Mettler Toledo, Greifensee, Switzerland) with a sensitivity of 0.10 mg, all {TP (1) + water (2)} combinations were created on a mass basis. The mass fraction of TP used to make various {TP (1) + water (2)} compositions ranged from 0.10–0.90. Three replicates of each {TP (1) + water (2)} composition were made.
Three repetitions of each experiment were carried out. Inside the Biological Shaker (Julabo, PA, USA), the acquired samples were saturated for three days to achieve equilibrium. After reaching equilibrium, the saturated samples were withdrawn from the shaker and centrifuged at 5000 rpm.

[2] = Apparent thermodynamic analysis of CNZ dissolution (van't Hoff and Gibbs equations); format: physicochemical
Procedure: At the mean harmonic temperature (Thm), all apparent thermodynamic parameters were examined. The Thm was calculated using the usual formula [27]. […] The van’t Hoff and Gibbs equations were used to conduct this analysis.

[3] = set-up: method as in PMID 25478230; details: cited from earlier work
[4] = set-up: method as in doi:10.1021/acs.jced.5b00075; details: cited from earlier work
[5] = cited from earlier work
[6] = TP + water, w1 = 0.1, Thm = 303.0 K
[7] = TP + water, w1 = 0.2, Thm = 303.0 K
[8] = TP + water, w1 = 0.3, Thm = 303.0 K
[9] = TP + water, w1 = 0.4, Thm = 303.0 K
[10] = TP + water, w1 = 0.5, Thm = 303.0 K
[11] = TP + water, w1 = 0.6, Thm = 303.0 K
[12] = TP + water, w1 = 0.7, Thm = 303.0 K
[13] = TP + water, w1 = 0.8, Thm = 303.0 K
[14] = TP + water, w1 = 0.9, Thm = 303.0 K
[15] = w1 = 0.0 (neat water), Thm = 303.0 K
[16] = w1 = 1.0 (neat TP), Thm = 303.0 K

## C(=C\c1ccccc1)/CN1CCN(C(c2ccccc2)c2ccccc2)CC1 [CNZ, 1-benzhydryl-4-[(E)-3-phenylprop-2-enyl]piperazine]
[1]; TP + water, w1 = 0.1, T = 293.2 K
  Solubility (xe) in mole fraction: 1.66 × 10^−7 mole fraction
[1]; TP + water, w1 = 0.1, T = 298.2 K
  Solubility (xe) in mole fraction: 2.30 × 10^−7 mole fraction
[1]; TP + water, w1 = 0.1, T = 303.2 K
  Solubility (xe) in mole fraction: 3.16 × 10^−7 mole fraction
[1]; TP + water, w1 = 0.1, T = 308.2 K
  Solubility (xe) in mole fraction: 3.91 × 10^−7 mole fraction
[1]; TP + water, w1 = 0.1, T = 313.2 K
  Solubility (xe) in mole fraction: 5.30 × 10^−7 mole fraction
[1]; TP + water, w1 = 0.2, T = 293.2 K
  Solubility (xe) in mole fraction: 6.50 × 10^−7 mole fraction
[1]; TP + water, w1 = 0.2, T = 298.2 K
  Solubility (xe) in mole fraction: 8.87 × 10^−7 mole fraction
[1]; TP + water, w1 = 0.2, T = 303.2 K
  Solubility (xe) in mole fraction: 1.23 × 10^−6 mole fraction
[1]; TP + water, w1 = 0.2, T = 308.2 K
  Solubility (xe) in mole fraction: 1.51 × 10^−6 mole fraction
[1]; TP + water, w1 = 0.2, T = 313.2 K
  Solubility (xe) in mole fraction: 1.95 × 10^−6 mole fraction
[1]; TP + water, w1 = 0.3, T = 293.2 K
  Solubility (xe) in mole fraction: 2.64 × 10^−6 mole fraction
[1]; TP + water, w1 = 0.3, T = 298.2 K
  Solubility (xe) in mole fraction: 3.50 × 10^−6 mole fraction
[1]; TP + water, w1 = 0.3, T = 303.2 K
  Solubility (xe) in mole fraction: 4.49 × 10^−6 mole fraction
[1]; TP + water, w1 = 0.3, T = 308.2 K
  Solubility (xe) in mole fraction: 5.35 × 10^−6 mole fraction
[1]; TP + water, w1 = 0.3, T = 313.2 K
  Solubility (xe) in mole fraction: 7.00 × 10^−6 mole fraction
[1]; TP + water, w1 = 0.4, T = 293.2 K
  Solubility (xe) in mole fraction: 1.12 × 10^−5 mole fraction
[1]; TP + water, w1 = 0.4, T = 298.2 K
  Solubility (xe) in mole fraction: 1.42 × 10^−5 mole fraction
[1]; TP + water, w1 = 0.4, T = 303.2 K
  Solubility (xe) in mole fraction: 1.72 × 10^−5 mole fraction
[1]; TP + water, w1 = 0.4, T = 308.2 K
  Solubility (xe) in mole fraction: 2.09 × 10^−5 mole fraction
[1]; TP + water, w1 = 0.4, T = 313.2 K
  Solubility (xe) in mole fraction: 2.62 × 10^−5 mole fraction
[1]; TP + water, w1 = 0.5, T = 293.2 K
  Solubility (xe) in mole fraction: 4.24 × 10^−5 mole fraction
[1]; TP + water, w1 = 0.5, T = 298.2 K
  Solubility (xe) in mole fraction: 5.26 × 10^−5 mole fraction
[1]; TP + water, w1 = 0.5, T = 303.2 K
  Solubility (xe) in mole fraction: 6.34 × 10^−5 mole fraction
[1]; TP + water, w1 = 0.5, T = 308.2 K
  Solubility (xe) in mole fraction: 7.33 × 10^−5 mole fraction
[1]; TP + water, w1 = 0.5, T = 313.2 K
  Solubility (xe) in mole fraction: 9.22 × 10^−5 mole fraction
[1]; TP + water, w1 = 0.6, T = 293.2 K
  Solubility (xe) in mole fraction: 1.73 × 10^−4 mole fraction
[1]; TP + water, w1 = 0.6, T = 298.2 K
  Solubility (xe) in mole fraction: 2.10 × 10^−4 mole fraction
[1]; TP + water, w1 = 0.6, T = 303.2 K
  Solubility (xe) in mole fraction: 2.44 × 10^−4 mole fraction
[1]; TP + water, w1 = 0.6, T = 308.2 K
  Solubility (xe) in mole fraction: 2.77 × 10^−4 mole fraction
[1]; TP + water, w1 = 0.6, T = 313.2 K
  Solubility (xe) in mole fraction: 3.36 × 10^−4 mole fraction
[1]; TP + water, w1 = 0.7, T = 293.2 K
  Solubility (xe) in mole fraction: 6.89 × 10^−4 mole fraction
[1]; TP + water, w1 = 0.7, T = 298.2 K
  Solubility (xe) in mole fraction: 8.00 × 10^−4 mole fraction
[1]; TP + water, w1 = 0.7, T = 303.2 K
  Solubility (xe) in mole fraction: 9.22 × 10^−4 mole fraction
[1]; TP + water, w1 = 0.7, T = 308.2 K
  Solubility (xe) in mole fraction: 1.05 × 10^−3 mole fraction
[1]; TP + water, w1 = 0.7, T = 313.2 K
  Solubility (xe) in mole fraction: 1.23 × 10^−3 mole fraction
[1]; TP + water, w1 = 0.8, T = 293.2 K
  Solubility (xe) in mole fraction: 2.81 × 10^−3 mole fraction
[1]; TP + water, w1 = 0.8, T = 298.2 K
  Solubility (xe) in mole fraction: 3.17 × 10^−3 mole fraction
[1]; TP + water, w1 = 0.8, T = 303.2 K
  Solubility (xe) in mole fraction: 3.53 × 10^−3 mole fraction
[1]; TP + water, w1 = 0.8, T = 308.2 K
  Solubility (xe) in mole fraction: 3.90 × 10^−3 mole fraction
[1]; TP + water, w1 = 0.8, T = 313.2 K
  Solubility (xe) in mole fraction: 4.43 × 10^−3 mole fraction
[1]; TP + water, w1 = 0.9, T = 293.2 K
  Solubility (xe) in mole fraction: 1.12 × 10^−2 mole fraction
[1]; TP + water, w1 = 0.9, T = 298.2 K
  Solubility (xe) in mole fraction: 1.25 × 10^−2 mole fraction
[1]; TP + water, w1 = 0.9, T = 303.2 K
  Solubility (xe) in mole fraction: 1.38 × 10^−2 mole fraction
[1]; TP + water, w1 = 0.9, T = 308.2 K
  Solubility (xe) in mole fraction: 1.48 × 10^−2 mole fraction
[1]; TP + water, w1 = 0.9, T = 313.2 K
  Solubility (xe) in mole fraction: 1.62 × 10^−2 mole fraction
[1]; w1 (TP mass fraction) = 0.0 (neat water), T = 293.2 K
  Solubility (xe) in mole fraction: 3.91 × 10^−8 mole fraction
[1]; w1 = 0.0 (neat water), T = 298.2 K
  Solubility (xe) in mole fraction: 5.67 × 10^−8 mole fraction
[1]; w1 = 0.0 (neat water), T = 303.2 K
  Solubility (xe) in mole fraction: 7.82 × 10^−8 mole fraction
[1]; w1 = 0.0 (neat water), T = 308.2 K
  Solubility (xe) in mole fraction: 9.78 × 10^−8 mole fraction
[1]; w1 = 0.0 (neat water), T = 313.2 K
  Solubility (xe) in mole fraction: 1.42 × 10^−7 mole fraction
[1]; w1 = 1.0 (neat TP), T = 293.2 K
  Solubility (xe) in mole fraction: 4.52 × 10^−2 mole fraction
[1]; w1 = 1.0 (neat TP), T = 298.2 K
  Solubility (xe) in mole fraction: 4.78 × 10^−2 mole fraction
[1]; w1 = 1.0 (neat TP), T = 303.2 K
  Solubility (xe) in mole fraction: 5.08 × 10^−2 mole fraction
[1]; w1 = 1.0 (neat TP), T = 308.2 K
  Solubility (xe) in mole fraction: 5.44 × 10^−2 mole fraction
[1]; w1 = 1.0 (neat TP), T = 313.2 K
  Solubility (xe) in mole fraction: 5.83 × 10^−2 mole fraction
[2]; [6]
  Apparent standard Gibbs energy (ΔsolnG°): 9.039 kcal/mol
  Apparent standard enthalpy (ΔsolnH°): 10.41 kcal/mol
  Apparent standard entropy (ΔsolnS°): 18.92 J mol^−1 K^−1
[2]; [7]
  Apparent standard Gibbs energy (ΔsolnG°): 8.229 kcal/mol
  Apparent standard enthalpy (ΔsolnH°): 9.964 kcal/mol
  Apparent standard entropy (ΔsolnS°): 23.94 J mol^−1 K^−1
[2]; [8]
  Apparent standard Gibbs energy (ΔsolnG°): 7.433 kcal/mol
  Apparent standard enthalpy (ΔsolnH°): 8.662 kcal/mol
  Apparent standard entropy (ΔsolnS°): 16.96 J mol^−1 K^−1
[2]; [9]
  Apparent standard Gibbs energy (ΔsolnG°): 6.606 kcal/mol
  Apparent standard enthalpy (ΔsolnH°): 7.596 kcal/mol
  Apparent standard entropy (ΔsolnS°): 13.68 J mol^−1 K^−1
[2]; [10]
  Apparent standard Gibbs energy (ΔsolnG°): 5.827 kcal/mol
  Apparent standard enthalpy (ΔsolnH°): 6.879 kcal/mol
  Apparent standard entropy (ΔsolnS°): 14.50 J mol^−1 K^−1
[2]; [11]
  Apparent standard Gibbs energy (ΔsolnG°): 5.014 kcal/mol
  Apparent standard enthalpy (ΔsolnH°): 5.853 kcal/mol
  Apparent standard entropy (ΔsolnS°): 11.57 J mol^−1 K^−1
[2]; [12]
  Apparent standard Gibbs energy (ΔsolnG°): 4.209 kcal/mol
  Apparent standard enthalpy (ΔsolnH°): 5.21 kcal/mol
  Apparent standard entropy (ΔsolnS°): 13.82 J mol^−1 K^−1
[2]; [13]
  Apparent standard Gibbs energy (ΔsolnG°): 3.401 kcal/mol
  Apparent standard enthalpy (ΔsolnH°): 4.085 kcal/mol
  Apparent standard entropy (ΔsolnS°): 9.464 J mol^−1 K^−1
[2]; [14]
  Apparent standard Gibbs energy (ΔsolnG°): 2.588 kcal/mol
  Apparent standard enthalpy (ΔsolnH°): 3.365 kcal/mol
  Apparent standard entropy (ΔsolnS°): 10.72 J mol^−1 K^−1
[2]; [15]
  Apparent standard Gibbs energy (ΔsolnG°): 9.876 kcal/mol
  Apparent standard enthalpy (ΔsolnH°): 11.39 kcal/mol
[2]; [16]
  Apparent standard Gibbs energy (ΔsolnG°): 1.791 kcal/mol
  Apparent standard enthalpy (ΔsolnH°): 2.323 kcal/mol
  Apparent standard entropy (ΔsolnS°): 7.346 J mol^−1 K^−1
[3]; pH = 2.0, 310.2 K
  Solubility in aqueous buffer: 290 µg/mL (≈ 787 µM)
[3]; pH = 5.0, 310.2 K
  Solubility in aqueous buffer: 17 µg/mL (≈ 46.1 µM)
[3]; pH = 6.5, 310.2 K
  Solubility in aqueous buffer: 2 µg/mL (≈ 5.43 µM)
[4]; 298.3 K
  Mole fraction solubility in water: 6.63 × 10^−8 mole fraction
[4]; 303.0 K
  Mole fraction solubility in water: 7.71 × 10^−8 mole fraction
[4]; 307.8 K
  Mole fraction solubility in water: 9.35 × 10^−8 mole fraction
[5]
  Solubility in water: practically insoluble in water
